From PMC6332095, “Purification and Partial Characterization of β-Glucosidase in Chayote (Sechium edule)” (Molecules, 2015)

Columns and labels:
[1] = tested on: T1, β-glucosidase in Sechium edule (Sebg; chayotase); test: p-nitrophenol release, […] nm; Michaelis-Menten nonlinear fit; format: biochemical; details: standard assay: sodium citrate 0.2 M, pH 5.0, 25 °C
T1 construct: native purification from fruit pulp (epicarp and mesocarp); homodimer 116 kDa, 58 kDa subunits; tryptic peptides MGFDAYR, FSIAWSR, WFENFLK, DFSEVCFK, EAMQAGVRVK, FGLTYIDYK, NNLK

[2] = target: β-glucosidase from chayote (Sechium edule) (Sechium edule); test: native gel or EMSA; native PAGE on 5%, 7.5%, 10% and 12.5% polyacrylamide gels, pH 8.3, Hedrick and Smith method; native mass 116 kDa compared with the 58 kDa subunit on SDS-PAGE

Km [1] [mM] | stoichiometry N [2] | Compound
4.88 |  | O=[N+]([O-])c1ccc(O[C@@H]2O[C@H](CO)[C@@H](O)[C@H](O)[C@H]2O)cc1 [p-nitrophenyl-β-D-glucopyranoside]
 | 2 | β-glucosidase from chayote (Sechium edule) (enzyme)
